# According to patent US8354382B2, “Hemifumarate of a pyrazole derivative” (Kissei Pharmaceutical Co., Ltd., priority 2008, dated 2013):
# How the values were obtained:
# [1] = Storage Stability Test (Deliquescence); format: physicochemical; conditions: stored at 40° C. and 75% relative humidity; up to 2 months
# Description: The hemifumarate dihydrate of Example 1, the ¾ fumarate dihydrate of Comparative Example 1 and the above compound (B) were stored under a condition of 40° C. and 75% relative humidity, and existence or nonexistence of the deliquescence was examined.
# [2] = Storage Stability Test (Purity), purity by HPLC and appearance after storage; format: physicochemical; conditions: for Purity (%) after 2 months / Purity (%) at initial point: HPLC
# Description: The hemifumarate dihydrate of Example 1 and the above compound (B) each were stored under a condition of 40° C. and 75% relative humidity and 60° C. in open vessels, and the storage stability for 2 months was examined. […] Measurement conditions of HPLC are as follows.
# Detector: ultraviolet-visible absorption spectrophotometer, wavelength: 225 nm
# Column: LUNA C18(2) (produced by Phenomenex), 5 μm, 4.6×250 mm, particle diameter 100×10^−10 m
# Column Temperature: a constant temperature of around 25° C.
# Sample concentration: 1 mg/mL
# Mobile phase A: 10 mM dipotassium hydrogenphosphate aqueous solution adjusted to pH 7.8 with phosphoric acid
# Mobile phase B: acetonitrile
# Gradient of concentration:
# 0 minute: Mobile phase B=22%
# 30 minutes: Mobile phase B=22%
# 50 minutes: Mobile phase B=70%
# 60 minutes: Mobile phase B=70%
# Range of area measurement: for 50 minutes from the start of analysis, except for the areas of the peak of fumaric acid (retention time 2 minutes), the peak of diethyl fumarate which is an impurity (retention time around 44 minutes) and the peak of the blank solution.
# [3] = storage condition 40° C. and 75% relative humidity
# [4] = storage condition 60° C. in open vessels
Structure (SMILES),existence or nonexistence of the deliquescence [1],"Purity (%) after 2 months [2, 3]","Purity (%) at initial point [2, 3]","Appearance after 2 months [2, 4]","Purity (%) after 2 months [2, 4]","Appearance at initial point [2, 4]","Purity (%) at initial point [2, 4]"
"Cc1cc(OCCCNCC(C)(C)C(N)=O)ccc1Cc1c(O[C@@H]2O[C@H](CO)[C@@H](O)[C@H](O)[C@H]2O)n[nH]c1C(C)C.O.O.O=C(O)/C=C/C(=O)O [Comparative Example 1, 3-(3-{4-[3-(β-D-Glucopyanosyloxy)-5-isopropyl-1H-pyazol-4-ylmethyl]-3-methyl-phenoxy}propylamino)-2,2-dimethylpropionamide ¾ fumarate dihydrate]",deliquescence was observed from the initial point of the experiment,–,–,–,–,–,–
"Cc1cc(OCCCNCC(C)(C)C(N)=O)ccc1Cc1c(O[C@@H]2O[C@H](CO)[C@@H](O)[C@H](O)[C@H]2O)n[nH]c1C(C)C.O=C(O)/C=C/C(=O)O [Example 1, 3-(3-{4-[3-(β-D-Glucopyranosyloxy)-5-isopropyl-1H-pyrazol-4-ylmethyl]-3-methylphenoxy}propylamino)-2,2-dimethylpropionamide hemifumarate dihydrate]",no deliquescence during 2 months,99.6%,99.5%,White,99.0%,White,99.5%
"Cc1cc(OCCCNCC(C)(C)C(N)=O)ccc1Cc1c(O[C@@H]2OC(CO)[C@@H](O)C(O)C2O)n[nH]c1C(C)C (stereo partly drawn) [compound (B), 3-(3-{4-[3-(β-D-Glucopyanosyloxy)-5-isopropyl-1H-pyazol-4-ylmethyl]-3-methylphenoxy}propylamino)-2,2-dimethylpropionamide]",deliquescence was observed from the initial point of the experiment,97.0%,98.7%,Brown,95.3%,White,98.7%
